In ChEMBL document CHEMBL5727155, “Ethynyl derivatives” (2018):
pEC50: −log10 of the molar value.

Target: Metabotropic glutamate receptor 4 (Homo sapiens, UniProt Q14833)
Test: Ca2+ Mobilization In Vitro Assay: A monoclonal HEK-293 cell line stably transfected with a cDNA encoding for the human mGlu4 receptor was generated; for the work with mGlu4 Positive Allosteric Modulators (PAMs), a cell line with low receptor expression levels and low constitutive receptor activity was selected to allow the differentiation of agonistic versus PAM activity. Cells were cultured according to standard protocols (Freshney, 2000) in Dulbecco's Modified Eagle Medium with high glucose supplemented with 1 mM glutamine, 10% (vol/vol) heat-inactivated bovine calf serum, Penicillin/Streptomycin, 50 μg/ml hygromycin and 15 μg/ml blasticidin (all cell culture reagents and antibiotics from Invitrogen, Basel, Switzerland).About 24 hrs before an experiment, 5×10^4 cells/well were seeded in poly-D-lysine coated, black/clear-bottomed 96-well plates. The cells were loaded with 2.5 μM Fluo-4AM in loading buffer (1×HBSS, 20 mM HEPES) for 1 hr at 37° C. and washed five times with loading buffer. The cells were transferred into a Functional Drug Screening System 7000 (Hamamatsu, Paris, France), and 11 half logarithmic serial dilutions of test compound at 37° C. were added and the cells were incubated for 10-30 min. with on-line recording of fluorescence. […]

Sequence of Metabotropic glutamate receptor 4 (Q14833 whole entry): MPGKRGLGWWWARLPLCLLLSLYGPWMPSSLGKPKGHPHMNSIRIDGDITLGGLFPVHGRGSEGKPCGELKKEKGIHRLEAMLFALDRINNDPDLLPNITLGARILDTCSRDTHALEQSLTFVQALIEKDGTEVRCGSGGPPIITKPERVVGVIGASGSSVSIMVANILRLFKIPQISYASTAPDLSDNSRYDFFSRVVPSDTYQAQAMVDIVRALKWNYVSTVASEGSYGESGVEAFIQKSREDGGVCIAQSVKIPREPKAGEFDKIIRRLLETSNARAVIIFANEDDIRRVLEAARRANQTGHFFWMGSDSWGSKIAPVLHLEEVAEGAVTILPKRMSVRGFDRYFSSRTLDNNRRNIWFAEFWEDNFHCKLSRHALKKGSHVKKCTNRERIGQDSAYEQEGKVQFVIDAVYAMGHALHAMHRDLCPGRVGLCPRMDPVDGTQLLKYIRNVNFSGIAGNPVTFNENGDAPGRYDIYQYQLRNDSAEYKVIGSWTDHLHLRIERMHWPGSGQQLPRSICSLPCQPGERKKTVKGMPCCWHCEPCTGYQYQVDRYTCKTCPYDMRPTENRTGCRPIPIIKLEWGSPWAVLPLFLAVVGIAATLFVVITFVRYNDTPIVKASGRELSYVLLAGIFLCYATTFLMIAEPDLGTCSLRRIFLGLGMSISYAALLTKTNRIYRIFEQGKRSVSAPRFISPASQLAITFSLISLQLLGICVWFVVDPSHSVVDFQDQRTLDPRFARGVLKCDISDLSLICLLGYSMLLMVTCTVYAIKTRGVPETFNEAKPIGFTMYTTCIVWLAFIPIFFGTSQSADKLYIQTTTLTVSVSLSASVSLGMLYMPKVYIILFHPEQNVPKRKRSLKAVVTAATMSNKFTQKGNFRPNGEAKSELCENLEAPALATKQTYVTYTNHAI

## CC(C)(C)Oc1ncc(N2CCN3C(=O)N(c4c(F)cc(C#Cc5ccccc5)cc4F)C(=O)C[C@@]3(C)C2=O)cn1
  pEC50: 6.80
